Results from patent publication US10730870B2, “Compounds and methods for the enhanced degradation of targeted proteins” (Arvinas, Inc., priority 2015, dated 2020).
pIC50: −log10 of the molar value.

How the values were obtained:
Androgen Receptor = experiment: Androgen receptor ELISA assay (AR degradation) in LNCaP and/or VCaP cells; format: cell-based; conditions: AR PROTACs
Description: Compounds have been evaluated in this assay in LNCaP and/or VCaP cells utilizing similar protocols. The protocols used with VCaP cells are described below. The androgen receptor ELISA assay was performed using PathScan AR ELISA (Cell Signaling Catalog #12850) according to the following assay steps:
VCaP cells are seeded at 30,000 cells/well at a volume of 200 μL/well in VCaP assay medium [Phenol red free RPMI (Gibco Cat #11835-030); 5% Charcoal Stripped (Dextran treated) FBS (Omega Scientific, Cat # FB-04); Pen/Strep Life Technologies (Gibco Cat #: 10378-016); 0.1 nM R1881 (Sigma, Cat # R0908) is added upon the start of the assay, not during initial plating of the cells) in Corning 3904 plates. The cells are grown for a minimum of 3 days.
(2)(i) Make 10× stock plate in media; (ii) transfer 2.5 μL of the 1000× stock to a new 10× stock plate (use 12 channel pipet, start at A (DMSO control) work thru H. When 247.5 μL of media is added to this plate, it will serve as a 10× stock; (iii) make media+1 nM R1881 for making 10× stock plate; (iv) add 247.5 μL of media with 1 nM R1881 to each well of the 10× stock plate, mix.
Then 22 μL of 10× stock is added to cells and incubated for 24h. 1× Cell Signaling Cell lysis buffer is made (Catalogue #9803; comes with the kit)—prepare for 50 μL/well. Keep on ice. Media is aspirated, and 50 μL 1× cell lysis buffer/well is added. The cells are placed on ice for 10 minutes. The solution is mixed and transferred to PCR plate, and centrifuged at 4 C for 10 minutes at 4000 rpm.
5 μL is transferred to fresh plate (use immediately or freeze −80 C); 115 μL ELISA Dilutant is added (0.15 ug/ml-0.075 ug/ml; comes with the PathScan ELISA).
Add 100 μL/well AR Elisa; cover and shake, 37 C for 2 hrs; dump, tap, wash 4×200 μL ELISA wash buffer; add 100 μL/well mouse AR detection Ab; cover and shake, 37 C for 1 hr; dump, tap, wash 4×200 μL ELISA wash buffer; add 100 μL/well anti-mouse—HRP conjugated Ab (comes with the kit); cover and shake, 37 C for 30 min; allow TMB reagent to come to RT; dump, tap, wash 4×200 μL Elisa wash buffer; tap; add 100 μL TMB, shake 5 min—while watching color. Add the stop reagent when light blue color develops. Add 100 μL Stop solution; shake and read at 450 nm.
The results presented in Table 3 were generated using the androgen receptor ELISA Assay described above, where compound potencies were characterized in highest percentage of Androgen Receptor degradation (Dmax) observed.

BRD4 = BRD4 c-myc ELISA assay in 22RV-1 cells; format: cell-based; conditions: 18 hrs
Description: 22RV-1 cells were seeded at 30,000 cells/well at a volume of 75 μL/well in RPMI +10% FBS media in 96-well plates and grown overnight at 37 C. Cells were dosed with compounds at 4× concentration diluted in 0.4% DMSO; compounds were serially diluted 1:3 for 8-point dose curve. 25 ul of compound was added to cells for a final concentration starting at 300 nM-0.3 nM in 0.1% DMSO and incubated for 18 hrs. Media was aspirated, cells washed 1× with PBS and aspirated. Cells were lysed in 50 ul RIPA buffer (50 mM Tris pH8, 150 mM NaCl, 1% Tx-100, 0.1% SDS, 0.5% sodium deoxycholate) supplemented with protease and phosphatase inhibitors. Plates were incubated on ice for 15 minutes then centrifuged at 4° C. for 10 min at 4000 rpm. Added 50 ul of cleared lysate from 96-well assay plate into 96-well c-myc ELISA plate (Novex, Life Technologies Catalog # KH02041). […] The rest of the assay was performed following the protocol from the c-myc ELISA kit. Data was analyzed and plotted using GraphPad Prism software.

VHL = VHL (Homo sapiens (Human), UniProt P40337); experiment: VHL fluorescence polarization (FP) competition assay; format: binding

| pIC50 (VHL; 1% in DMSO) | pIC50 (VHL; 10% in DMSO) | Compound | also measured |
| --- | --- | --- | --- |
| 4.85 | – | Cc1c(-c2ccc(CNC(=O)[C@@H]3C[C@@H](O)CN3C(=O)[C@H](C(C)C)N3Cc4ccccc4C3=O)cc2)ncn1C [Example 106, (2S,4R)—N-(4-(1,5-dimethyl-1H-imidazol-4-yl)benzyl)-4-hydroxy-1-((S)-3-methyl-2-(1-oxoisoindolin-2-yl)butanoyl)pyrrolidine-2-carboxamide] | – |
| 5.11 | – | CC(C)[C@@H](C(=O)N1C[C@H](O)C[C@H]1C(=O)NCc1ccc(-c2scnc2C(F)(F)F)cc1)N1Cc2ccccc2C1=O [Example 102, (2S,4R)-4-hydroxy-1-((S)-3-methyl-2-(1-oxoisoindolin-2-yl)butanoyl)-N-(4-(4-(trifluoromethyl)thiazol-5-yl)benzyl)pyrrolidine-2-carboxamide] | – |
| 5.41 | – | CC(=O)N[C@H](C(=S)N1C[C@H](O)C[C@H]1C(=O)NCc1ccc(-c2scnc2C)cc1)C(C)C [Example 130, (2S,4R)-1-((S)-2-acetamido-3-methylbutanethioyl)-4-hydroxy-N-(4-(4-methylthiazol-5-yl)benzyl)pyrrolidine-2-carboxamide] | – |
| 5.88 | 5.78 | Cc1ncsc1-c1ccc(CNC(=O)[C@@H]2C[C@@H](O)CN2C(=O)[C@H](C(C)C)N2Cc3cc(Br)ccc3C2=O)cc1 [Example 25, (2S,4R)-1-((S)-2-(5-bromo-1-oxoisoindolin-2-yl)-3-methylbutanoyl)-4-hydroxy-N-(4-(4-methylthiazol-5-yl)benzyl)pyrrolidine-2-carboxamide] | pIC50 (VHL; 0.25% in DMSO): 5.62 |
| 5.79 | 5.86 | Cc1ncsc1-c1ccc(CNC(=O)[C@@H]2C[C@@H](O)CN2C(=O)[C@@H](NC(=O)c2cccc(C#N)c2)C(C)(C)C)cc1 [Example 71, (2S,4R)-1-((S)-2-(3-cyanobenzamido)-3,3-dimethylbutanoyl)-4-hydroxy-N-(4-(4-methylthiazol-5-yl)benzyl)pyrrolidine-2-carboxamide] | – |
| 5.61 | 5.43 | Cc1ncsc1-c1ccc(CNC(=O)[C@@H]2C[C@@H](O)CN2C(=O)[C@@H](NC(=O)CCC(C)C)c2cccs2)cc1 [Example 52, (2S,4R)-4-hydroxy-1-((R)-2-(4-methylpentanamido)-2-(thiophen-2-yl)acetyl)-N-(4-(4-methylthiazol-5-yl)benzyl)pyrrolidine-2-carboxamide] | – |
| 5.88 | 5.92 | Cc1ncsc1-c1ccc(CNC(=O)[C@@H]2C[C@@H](O)CN2C(=O)[C@H](C(C)C)N2Cc3cc(Cl)ccc3C2=O)cc1 [Example 73, (2S,4R)-1-((S)-2-(5-chloro-1-oxoisoindolin-2-yl)-3-methylbutanoyl)-4-hydroxy-N-(4-(4-methylthiazol-5-yl)benzyl)pyrrolidine-2-carboxamide] | – |
| 5.85 | 5.43 | Cc1ncsc1-c1ccc(CNC(=O)[C@@H]2C[C@@H](O)CN2C(=O)[C@H](CS)NC(=O)CCC(C)C)cc1 [Example 59, (2S,4R)-4-hydroxy-1-((R)-3-mercapto-2-(4-methylpentanamido)propanoyl)-N-(4-(4-methylthiazol-5-yl)benzyl)pyrrolidine-2-carboxamide] | – |
| 4.42 | – | CC[C@H](C)[C@H](NC(C)c1ccccc1)C(=O)N1C[C@H](O)C[C@H]1C(=O)NCc1ccc(-c2scnc2C)cc1 (stereo partly drawn) [Example 105, (2S,4R)-4-hydroxy-1-((2S,3S)-3-methyl-2-(1-phenylethylamino)pentanoyl)-N-(4-(4-methylthiazol-5-yl)benzyl)pyrrolidine-2-carboxamide] | – |
| 6.35 | 6.58 | Cc1ncsc1-c1ccc(CNC(=O)[C@@H]2C[C@@H](O)CN2C(=O)[C@H](C(C)C)N2Cc3ccc(Cl)cc3C2=O)cc1 [Example 74, (2S,4R)-1-((S)-2-(6-chloro-1-oxoisoindolin-2-yl)-3-methylbutanoyl)-4-hydroxy-N-(4-(4-methylthiazol-5-yl)benzyl)pyrrolidine-2-carboxamide] | – |

The remaining lines, values behind:

| Compound | pIC50 (VHL; 1% in DMSO) | pIC50 (VHL; 10% in DMSO) | also measured |
| --- | --- | --- | --- |
| Cc1ncsc1-c1ccc([C@H](C)NC(=O)[C@@H]2C[C@@H](O)CN2C(=O)[C@H](C(C)C)n2cc(-c3ccnc(OC4CN(c5ccc(C(=O)N[C@H]6C(C)(C)[C@H](Oc7ccc(C#N)c(Cl)c7)C6(C)C)cn5)C4)c3)cn2)cc1 | – | – | Dmax (highest percentage of Androgen Receptor degradation) (Androgen Receptor): +++ (51%≤Dmax≤70%) |
| Cc1ncsc1-c1ccc(CNC(=O)[C@@H]2C[C@@H](O)CN2C(=O)[C@H](C(C)C)n2cc(-c3cccc(O[C@H](C)CNC(=O)C[C@@H]4N=C(c5ccc(Cl)cc5)c5c(sc(C)c5C)-n5c(C)nnc54)c3)cn2)cc1 | – | – | cMyc Imax (BRD4): ++++ (71%≤Imax) |
| Cc1ncsc1-c1ccc([C@H](C)NC(=O)[C@@H]2C[C@@H](O)CN2C(=O)[C@H](C(C)C)n2cc(-c3ccnc(O[C@H]4C[C@H](NC(=O)C[C@@H]5N=C(c6ccc(Cl)cc6)c6c(sc(C)c6C)-n6c(C)nnc65)C4)c3)cn2)cc1 | – | – | cMyc Imax (BRD4): ++++ (71%≤Imax) |
| Cc1ncsc1-c1ccc([C@H](C)NC(=O)[C@@H]2C[C@@H](O)CN2C(=O)[C@H](C(C)C)n2cc(-c3ccnc(N4CCC(Nc5ccc(C(=O)N[C@H]6C(C)(C)[C@H](Oc7ccc(C#N)c(Cl)c7)C6(C)C)cc5)C4)c3)cn2)cc1 (stereo partly shown) | – | – | Dmax (highest percentage of Androgen Receptor degradation) (Androgen Receptor): ++ (26%≤Dmax≤50%) |
| Cc1ncsc1-c1ccc([C@H](C)NC(=O)[C@@H]2C[C@@H](O)CN2C(=O)[C@H](C(C)C)n2cc(-c3ccnc(N4CC[C@H](NC(=O)C[C@@H]5N=C(c6ccc(Cl)cc6)c6c(sc(C)c6C)-n6c(C)nnc65)C4)c3)cn2)cc1 | – | – | cMyc Imax (BRD4): ++++ (71%≤Imax) |
| Cc1ncsc1-c1ccc([C@H](C)NC(=O)[C@@H]2C[C@@H](O)CN2C(=O)[C@@H](C(C)C)n2cc(-c3ccnc(O[C@H]4C[C@H](NC(=O)C[C@@H]5N=C(c6ccc(Cl)cc6)c6c(sc(C)c6C)-n6c(C)nnc65)C4)c3)cn2)cc1 | – | – | cMyc Imax (BRD4): +++ (51%≤Imax≤70%) |
| Cc1ncsc1-c1ccc(CNC(=O)[C@@H]2C[C@@H](O)CN2C(=O)C(C(C)C)n2cc(OC3CCN(c4ccc(-c5ccc(N6C(=S)N(c7ccc(C#N)c(C(F)(F)F)c7)C(=O)C6(C)C)cc5)cn4)CC3)cn2)cc1 (stereo partly shown) | – | – | Dmax (highest percentage of Androgen Receptor degradation) (Androgen Receptor): ++ (26%≤Dmax≤50%) |
| Cc1ncsc1-c1ccc([C@H](C)NC(=O)[C@@H]2C[C@@H](O)CN2C(=O)[C@H](C(C)C)n2cc(-c3ccnc(OC4CN(c5ncc(C(=O)NC6C(C)(C)C(Oc7ccc(C#N)c(Cl)c7)C6(C)C)cn5)C4)c3)cn2)cc1 (stereo partly shown) | – | – | Dmax (highest percentage of Androgen Receptor degradation) (Androgen Receptor): +++ (51%≤Dmax≤70%) |
| Cc1ncsc1-c1ccc([C@H](C)NC(=O)[C@@H]2C[C@@H](O)CN2C(=O)[C@H](C(C)C)n2cc(OCCCOCCC(O)CCOc3ccc(N4C(=S)N(c5ccc(C#N)c(C(F)(F)F)c5)C(=O)C4(C)C)cc3)cn2)cc1 (stereo partly shown) | – | – | Dmax (highest percentage of Androgen Receptor degradation) (Androgen Receptor): +++ (51%≤Dmax≤70%) |
| CC(C)[C@@H](C(=O)N1C[C@H](O)C[C@H]1C(=O)NCc1ccc(C2(O)COC2)cc1)N1Cc2ccccc2C1=O [Example 127, (2S,4R)-4-hydroxy-N-(4-(3-hydroxyoxetan-3-yl)benzyl)-1-((S)-3-methyl-2-(1-oxoisoindolin-2-yl)butanoyl)pyrrolidine-2-carboxamide] | – | 3.39 | – |
| Cc1ncsc1-c1ccc([C@H](C)NC(=O)[C@@H]2C[C@@H](O)CN2C(=O)[C@@H](n2cc(-c3ccnc(O[C@H]4C[C@@H](NC(=O)C[C@@H]5N=C(c6ccc(Cl)cc6)c6c(sc(C)c6C)-n6c(C)nnc65)C4)c3)cn2)C(C)(C)C)cc1 | – | – | cMyc Imax (BRD4): ++++ (71%≤Imax) |
| CC(C)[C@@H](C(=O)N1C[C@H](O)C[C@H]1C(=O)NCc1ccc(Br)cc1)N1Cc2ccccc2C1=O [Example 23, (2S,4R)—N-(4-bromobenzyl)-4-hydroxy-1-((S)-3-methyl-2-(1-oxoisoindolin-2-yl)butanoyl)pyrrolidine-2-carboxamide] | 5.60 | 5.22 | pIC50 (VHL; 0.25% in DMSO): 5.94 |
